In patent US10151975B2, “Lithographic printing plate precursor” (AGFA NV, priority 2013, dated 2018):

Assay: Solubility of the compounds: visual homogeneity of mixture in aqueous buffer pH 7
Format: physicochemical
Parameters: key to Visual homogeneity After 1 hour / Visual homogeneity After 1 day / Visual homogeneity After 4 days / Visual homogeneity After 1 week / Visual homogeneity After 2 weeks: −: heterogeneous mixture; +: homogeneous mixture
Details: for Time after which the mixture becomes homogeneous: 100 mg compound in 5 ml aqueous buffer pH = 7; for Visual homogeneity After 1 week / Visual homogeneity After 2 weeks / Visual homogeneity After 1 hour / Visual homogeneity After 1 day / Visual homogeneity After 4 days: 100 mg compound in 5 ml aqueous buffer pH = 7, room temperature
Experimental: Solubility of the Compounds
100 mg of the inventive and comparative compounds were added to 5 ml of a CertiPUR pH=7 buffer solution available from Merck. The mixture was gently stirred at room temperature and the homogeneity of the mixture was evaluated visually after different times: […]

Compound	Time after which the mixture becomes homogeneous	Visual homogeneity After 1 week	Visual homogeneity After 2 weeks	Visual homogeneity After 1 hour	Visual homogeneity After 1 day	Visual homogeneity After 4 days
C=C(C)C(=O)OCCOC(=O)C(=O)OCCOC(=O)C(=C)C [Compound M-1]	1 week	+	+	−	−	−
C=CC(=O)OCCCCOC(=C)C(=O)OCCCCOC(=O)C=C [Compound M-2]	1 week	+	+	−	−	−
C=CC(=O)NCCOC(=O)C(=O)OCCNC(=O)C=C [Compound M-3]	1 days	+	+	−	+	+
C=C(C)C(=O)OCCOC(=O)NCCC(C)CC(C)(C)CNC(=O)OCCOC(=O)C(=C)C (centres unmarked) [Compound M-5]		−	−	−	−	−

Next, values leading:

Time after which the mixture becomes homogeneous	Visual homogeneity After 1 week	Visual homogeneity After 2 weeks	Visual homogeneity After 1 hour	Visual homogeneity After 1 day	Visual homogeneity After 4 days	Compound
	−	−	−	−	−	C=C(C)C(=O)OCCCNC(=O)C(=O)NCCCOC(=O)C(=C)C [Compound M-4]
	−	−	−	−	−	C=CC(=O)OCCn1c(=O)n(CCOC(=O)C=C)c(=O)n(CCOC(=O)C=C)c1=O [Compound M-6]
	−	−	−	−	−	C=CC(=O)OCCOCCOc1ccc(C(C)(C)c2ccc(OCCOC(=O)C=C)cc2)cc1 [Compound M-7]
